Measured values from patent US20130210623A1, “PESTICIDAL MIXTURES INCLUDING ISOXAZOLINE DERIVATIVES” (SYNGENTA CROP PROTECTION LLC, priority 2010, published 2013).

Assays:
[1] = tested on: Heliothis virescens (Tobacco Budworm); assay: Heliothis virescens egg/larval mortality on artificial diet, 24-well microtiter plate; type: in vivo; settings: 4 days
Procedure: Heliothis virescens (Tobacco Budworm)
Eggs (0-24 h old) are placed in 24-well microtiter plate on artificial diet and treated with test solutions (DMSO) by pipetting. After an incubation period of 4 days, samples are checked for larval mortality.

[2] = tested on: Tetranychus urticae (Two-Spotted Spider Mite); assay: Tetranychus urticae mixed population mortality on sprayed bean leaf discs; type: in vivo
Source text: Tetranychus urticae (Two-Spotted Spider Mite)
Bean leaf discs on agar in 24-well microtiter plates are sprayed with test solutions (DMSO). After drying, the leaf discs are infested with mite populations of mixed ages. 8 days later, discs are checked for mixed population mortality.

CC1(C)[C@H](C(=O)O[C@H](C#N)c2cccc(Oc3ccccc3)c2)[C@@H]1/C=C(\Cl)C(F)(F)F (racemic) [Lambda Cyhalothrin, lambda-cyhalothrin]
AVERAGE DEAD IN % Lambda Cyhalothrin ([1]; Table 2, Lambda Cyhalothrin alone 0.0125 ppm AI): 0% | AVERAGE DEAD IN % Lambda Cyhalothrin ([1]; Table 2, Lambda Cyhalothrin alone 0.025 ppm AI): 0% | AVERAGE DEAD IN % Lambda Cyhalothrin ([1]; Table 2, Lambda Cyhalothrin alone 0.05 ppm AI): 0% | AVERAGE DEAD IN % Lambda Cyhalothrin ([1]; Table 2, Lambda Cyhalothrin alone 0.1 ppm AI): 50% | AVERAGE DEAD IN % Lambda Cyhalothrin ([1]; Table 2, Lambda Cyhalothrin alone 0.2 ppm AI): 80% | AVERAGE DEAD IN % Lambda Cyhalothrin ([1]; Table 2, Lambda Cyhalothrin alone 0.4 ppm AI): 90% | AVERAGE DEAD IN % Lambda Cyhalothrin ([2]; Table 6, Lambda Cyhalothrin alone 6.25 ppm AI, 8 days): 0% | AVERAGE DEAD IN % Lambda Cyhalothrin ([2]; Table 6, Lambda Cyhalothrin alone 12.5 ppm AI, 8 days): 50% | AVERAGE DEAD IN % Lambda Cyhalothrin ([2]; Table 6, Lambda Cyhalothrin alone 25 ppm AI, 8 days): 90% | AVERAGE DEAD IN % Lambda Cyhalothrin ([2]; Table 6, Lambda Cyhalothrin alone 50 ppm AI, 8 days): 85%

CN/C(=N\[N+](=O)[O-])NCc1cnc(Cl)s1 [Clothianidin, clothianidin]
AVERAGE DEAD IN % Clothianidin ([1]; Table 4, Clothianidin alone 1.5 ppm AI): 0% | AVERAGE DEAD IN % Clothianidin ([1]; Table 4, Clothianidin alone 3 ppm AI): 0% | AVERAGE DEAD IN % Clothianidin ([1]; Table 4, Clothianidin alone 6 ppm AI): 25% | AVERAGE DEAD IN % Clothianidin ([1]; Table 4, Clothianidin alone 12 ppm AI): 50% | AVERAGE DEAD IN % Clothianidin ([1]; Table 4, Clothianidin alone 24 ppm AI): 85% | AVERAGE DEAD IN % Clothianidin ([2]; Table 8, Clothianidin alone 50 ppm AI, 8 days): 0% | AVERAGE DEAD IN % Clothianidin ([2]; Table 8, Clothianidin alone 100 ppm AI, 8 days): 0% | AVERAGE DEAD IN % Clothianidin ([2]; Table 8, Clothianidin alone 200 ppm AI, 8 days): 0% | AVERAGE DEAD IN % Clothianidin ([2]; Table 8, Clothianidin alone 400 ppm AI, 8 days): 0% | AVERAGE DEAD IN % Clothianidin ([2]; Table 8, Clothianidin alone 800 ppm AI, 8 days): 0%

Cc1cc(C2=NO[C@@](c3cc(Cl)cc(Cl)c3)(C(F)(F)F)C2)ccc1C(=O)NCC(=O)NCC(F)(F)F [I-A2]
AVERAGE DEAD IN % COMPOUND I-A2 ([1]; Table 1, I-A2 alone 0.025 ppm AI): 0% | AVERAGE DEAD IN % COMPOUND I-A2 ([1]; Table 1, I-A2 alone 0.05 ppm AI): 0% | AVERAGE DEAD IN % COMPOUND I-A2 ([1]; Table 1, I-A2 alone 0.1 ppm AI): 5% | AVERAGE DEAD IN % COMPOUND I-A2 ([1]; Table 1, I-A2 alone 0.2 ppm AI): 75% | AVERAGE DEAD IN % COMPOUND I-A2 ([1]; Table 1, I-A2 alone 0.4 ppm AI): 94% | AVERAGE DEAD IN % COMPOUND I-A2 ([1]; Table 1, I-A2 alone 0.8 ppm AI): 99% | AVERAGE DEAD IN % COMPOUND I-A2 ([1]; Table 2, I-A2 alone 0.025 ppm AI): 0% | AVERAGE DEAD IN % COMPOUND I-A2 ([1]; Table 2, I-A2 alone 0.05 ppm AI): 0% | AVERAGE DEAD IN % COMPOUND I-A2 ([1]; Table 2, I-A2 alone 0.1 ppm AI): 5% | AVERAGE DEAD IN % COMPOUND I-A2 ([1]; Table 2, I-A2 alone 0.2 ppm AI): 75% | AVERAGE DEAD IN % COMPOUND I-A2 ([1]; Table 2, I-A2 alone 0.4 ppm AI): 94% | AVERAGE DEAD IN % COMPOUND I-A2 ([1]; Table 2, I-A2 alone 0.8 ppm AI): 99% | AVERAGE DEAD IN % COMPOUND I-A2 ([1]; Table 3, I-A2 alone 0.05 ppm AI): 0% | AVERAGE DEAD IN % COMPOUND I-A2 ([1]; Table 3, I-A2 alone 0.1 ppm AI): 0% | AVERAGE DEAD IN % COMPOUND I-A2 ([1]; Table 3, I-A2 alone 0.2 ppm AI): 73% | AVERAGE DEAD IN % COMPOUND I-A2 ([1]; Table 3, I-A2 alone 0.4 ppm AI): 89% | AVERAGE DEAD IN % COMPOUND I-A2 ([1]; Table 3, I-A2 alone 0.8 ppm AI): 98% | AVERAGE DEAD IN % COMPOUND I-A2 ([1]; Table 4, I-A2 alone 0.05 ppm AI): 0% | AVERAGE DEAD IN % COMPOUND I-A2 ([1]; Table 4, I-A2 alone 0.1 ppm AI): 0% | AVERAGE DEAD IN % COMPOUND I-A2 ([1]; Table 4, I-A2 alone 0.2 ppm AI): 73% | AVERAGE DEAD IN % COMPOUND I-A2 ([1]; Table 4, I-A2 alone 0.4 ppm AI): 89% | AVERAGE DEAD IN % COMPOUND I-A2 ([1]; Table 4, I-A2 alone 0.8 ppm AI): 98% | AVERAGE DEAD IN % COMPOUND I-A2 ([2]; Table 5, I-A2 alone 0.1 ppm AI, 8 days): 17% | AVERAGE DEAD IN % COMPOUND I-A2 ([2]; Table 5, I-A2 alone 0.2 ppm AI, 8 days): 83% | AVERAGE DEAD IN % COMPOUND I-A2 ([2]; Table 5, I-A2 alone 0.4 ppm AI, 8 days): 100% | AVERAGE DEAD IN % COMPOUND I-A2 ([2]; Table 6, I-A2 alone 0.1 ppm AI, 8 days): 17% | AVERAGE DEAD IN % COMPOUND I-A2 ([2]; Table 6, I-A2 alone 0.2 ppm AI, 8 days): 83% | AVERAGE DEAD IN % COMPOUND I-A2 ([2]; Table 6, I-A2 alone 0.8 ppm AI, 8 days): 100% | AVERAGE DEAD IN % COMPOUND I-A2 ([2]; Table 7, I-A2 alone 0.025 ppm AI, 0 * = 0% control assumed since control at the higher rate was also 0%): 0 * % | AVERAGE DEAD IN % COMPOUND I-A2 ([2]; Table 7, I-A2 alone 0.05 ppm AI, 0 * = 0% control assumed since control at the higher rate was also 0%): 0 * % | AVERAGE DEAD IN % COMPOUND I-A2 ([2]; Table 7, I-A2 alone 0.1 ppm AI, 8 days): 0% | AVERAGE DEAD IN % COMPOUND I-A2 ([2]; Table 7, I-A2 alone 0.2 ppm AI, 8 days): 85% | AVERAGE DEAD IN % COMPOUND I-A2 ([2]; Table 7, I-A2 alone 0.4 ppm AI, 8 days): 95% | AVERAGE DEAD IN % COMPOUND I-A2 ([2]; Table 8, I-A2 alone 0.1 ppm AI, 8 days): 0% | AVERAGE DEAD IN % COMPOUND I-A2 ([2]; Table 8, I-A2 alone 0.2 ppm AI, 8 days): 85% | AVERAGE DEAD IN % COMPOUND I-A2 ([2]; Table 8, I-A2 alone 0.4 ppm AI, 8 days): 95%

CCOC(=O)OC1=C(c2cc(C)ccc2C)C(=O)N[C@]12CC[C@@H](OC)CC2 [Spirotetramat, spirotetramat]
AVERAGE DEAD IN % Spirotetramat ([1]; Table 3, Spirotetramat alone 25 ppm AI): 10% | AVERAGE DEAD IN % Spirotetramat ([1]; Table 3, Spirotetramat alone 50 ppm AI): 0% | AVERAGE DEAD IN % Spirotetramat ([1]; Table 3, Spirotetramat alone 100 ppm AI): 0% | AVERAGE DEAD IN % Spirotetramat ([1]; Table 3, Spirotetramat alone 200 ppm AI): 0% | AVERAGE DEAD IN % Spirotetramat ([1]; Table 3, Spirotetramat alone 400 ppm AI): 15% | AVERAGE DEAD IN % Spirotetramat ([1]; Table 3, Spirotetramat alone 800 ppm AI): 80% | AVERAGE DEAD IN % Spirotetramat ([2]; Table 7, Spirotetramat alone 12.5 ppm AI, 8 days): 75% | AVERAGE DEAD IN % Spirotetramat ([2]; Table 7, Spirotetramat alone 25 ppm AI, 8 days): 85% | AVERAGE DEAD IN % Spirotetramat ([2]; Table 7, Spirotetramat alone 50 ppm AI, 8 days): 90% | AVERAGE DEAD IN % Spirotetramat ([2]; Table 7, Spirotetramat alone 100 ppm AI, 8 days): 90% | AVERAGE DEAD IN % Spirotetramat ([2]; Table 7, Spirotetramat alone 200 ppm AI, 8 days): 90%

abamectin
AVERAGE DEAD IN % Abamectin ([1]; Table 1, Abamectin alone 0.1 ppm AI): 0% | AVERAGE DEAD IN % Abamectin ([1]; Table 1, Abamectin alone 0.2 ppm AI): 0% | AVERAGE DEAD IN % Abamectin ([1]; Table 1, Abamectin alone 0.4 ppm AI): 10% | AVERAGE DEAD IN % Abamectin ([1]; Table 1, Abamectin alone 0.8 ppm AI): 65% | AVERAGE DEAD IN % Abamectin ([1]; Table 1, Abamectin alone 1.6 ppm AI): 90% | AVERAGE DEAD IN % Abamectin ([1]; Table 1, Abamectin alone 3.2 ppm AI): 90% | AVERAGE DEAD IN % Abamectin ([2]; Table 5, Abamectin alone 0.0125 ppm AI, 8 days): 0% | AVERAGE DEAD IN % Abamectin ([2]; Table 5, Abamectin alone 0.025 ppm AI, 8 days): 25% | AVERAGE DEAD IN % Abamectin ([2]; Table 5, Abamectin alone 0.05 ppm AI, 8 days): 55% | AVERAGE DEAD IN % Abamectin ([2]; Table 5, Abamectin alone 0.1 ppm AI, 8 days): 55% | AVERAGE DEAD IN % Abamectin ([2]; Table 5, Abamectin alone 0.2 ppm AI, 8 days): 60%
